Measured values: patent publication US8937193B2, “Apogossypolone derivatives as anticancer agents” (Sanford-Burnham Medical Research Institute, priority 2009, dated 2015)
Like-named read-outs stand apart in the source and are kept apart here.

Key:
EC50 values of FIG. 3(B) = settings: test not named
[1] = format: physicochemical
Description: The chemical stability of solid compounds may be evaluated at room temperature. The stability of the compound was monitored using a combination of HPLC and LCMS.

[2] = not given; remark: listed apart in the source
Bcl-XL [3] = target: T1, Bcl-XL (Homo sapiens (Human), UniProt Q07817); assay: 1D 1H-NMR binding assay against Bcl-XL; parameters: key: +++: Very Active; ++: Active; +: Mild; −: Weak; settings: 4-point-rating scale, binding to Bcl-XL
Target sequence in this assay (Q07817 whole entry): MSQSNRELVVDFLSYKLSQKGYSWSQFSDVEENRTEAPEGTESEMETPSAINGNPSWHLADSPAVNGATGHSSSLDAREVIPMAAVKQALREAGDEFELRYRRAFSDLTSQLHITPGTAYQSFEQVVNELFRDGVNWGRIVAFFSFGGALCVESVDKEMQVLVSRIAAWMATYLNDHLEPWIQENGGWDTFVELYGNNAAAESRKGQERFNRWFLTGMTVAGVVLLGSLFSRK

Bcl-XL [4] = target: T1, Bcl-XL; assay: Fluorescence polarization competitive binding assay (FPA), Bcl-XL; settings: displacement of BH3 peptide
Target sequence in this assay (Q07817 1-211): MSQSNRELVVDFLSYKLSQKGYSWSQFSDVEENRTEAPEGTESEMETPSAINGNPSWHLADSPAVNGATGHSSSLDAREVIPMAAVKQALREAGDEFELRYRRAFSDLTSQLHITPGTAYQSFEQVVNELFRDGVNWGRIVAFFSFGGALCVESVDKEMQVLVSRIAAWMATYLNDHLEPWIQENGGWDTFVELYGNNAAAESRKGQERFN
Description: (§1) For competitive binding assays, 100 nM GST-BCL-XL ΔTM protein was preincubated with the tested compound at varying concentrations in 47.5 μL PBS (pH=7.4) in 96-well black plates at room temperature for 10 min, then 2.5 μL of 100 nM FITC-labeled Bak BH3 peptide was added to produce a final volume of 50 μL. The wild-type and mutant Bak BH3 peptides were included in each assay plate as positive and negative controls, respectively. After 30 min incubation at room temperature, the polarization values in millipolarization units were measured at excitation/emission wavelengths of 480/535 nm with a multilabel plate reader (PerkinElmer). IC50 was determined by fitting the experimental data to a sigmoidal dose-response nonlinear regression model (SigmaPlot 10.0.1, Systat Software, Inc., San Jose, Calif., USA). Data reported are mean of three independent experiments±standard error (SE). […] Fluorescence polarization was measured after 10 min.

Bcl-2 = Bcl-2 (Homo sapiens (Human), UniProt P10415); assay: Fluorescence polarization competitive binding assay (FPA), Bcl-2; settings: displacement of BH3 peptide
Description: as §1

Bfl-1 = Bfl-1 (Homo sapiens (Human), UniProt Q16548); assay: Fluorescence polarization competitive binding assay (FPA), Bfl-1; settings: displacement of BH3 peptide
Description: as §1

Mcl-1 = Mcl-1 (Homo sapiens (Human), UniProt Q07820); assay: Fluorescence polarization competitive binding assay (FPA), Mcl-1; settings: displacement of BH3 peptide
Description: as §1

Bcl-XL [5] = target: T1, Bcl-XL; assay: Isothermal titration calorimetry (ITC), Bcl-XL; format: binding
Target sequence in this assay (Q07817 whole entry): as the sequence (Q07817 whole entry) above

[6] = In vitro plasma stability; settings: for Plasma Stability (T = 40 mins): Table 4
Description: (§2) To test the pharmacological properties of the compounds of Formula I, the in vitro plasma stability, microsomal stability, and cell membrane permeability may be determined.

[7] = In vitro microsomal stability; settings: Table 4
Description: as §2

H460 cell line = settings: pan-Bcl-2 family inhibitor from literature; cited from earlier work
primary CLL cells = assay: Annexin-V apoptosis assay, primary CLL cells; format: cell-based, human
Description: The apoptotic activity of the compounds against RS4;11, BP3 and primary CLL cells was assessed by staining with Annexin V-FITC and propidium iodide (PI). Cells were cultured in RPMI 1640 medium (Mediatech Inc., Herndon, Va. 20171) containing 10% fetal bovine serum (Mediatech Inc., Herndon, Va. 20171) and Penicillin/Streptomycin (Mediatech Inc., Herndon, Va. 20171). […] The percentage of viable cells was determined by FITC-Annexin V- and propidium iodide (PI)-labeling, using an Apoptosis Detection kit (BioVision Inc.), and analyzing stained cells by flow cytometry (FACSort; Bectin-Dickinson, Inc.; Mountain View, Calif.). Cells that were annexin-V-negative and PI-negative were considered viable.

[8] = administered orally (6a); cited from earlier work
PPC-1 xenograft tumors = assay: PPC-1 tumor xenograft study in nude mice
Description: Female 6-week-old nude mice were purchased from Charles River Laboratories. 5×10^6 PCC-1 cells suspended in 0.2 ml PBS were injected subcutaneously into a flank region of each nude mouse. Tumor bearing mice were size matched (200 mm^3) into treatment and control group, ear tagged, and monitored individually. Tumor volume was measured two to three times weekly by digital calipers (volume=length×width^2/2). All studies use 6 mice per group. […] Control mice received saline. The injections were given three times in first week, twice in second week and once in third week and a total of six injections were administered during the experiment. When all tumors of the control group exceed 2000 mm^3 in volume, the animal experiment was terminated. Tumor growth inhibition ratios (T/C %) were calculated by dividing the average tumor volume in the treatment group by the average tumor volume in the control group.

Sequence of Bcl-2 (P10415 whole entry): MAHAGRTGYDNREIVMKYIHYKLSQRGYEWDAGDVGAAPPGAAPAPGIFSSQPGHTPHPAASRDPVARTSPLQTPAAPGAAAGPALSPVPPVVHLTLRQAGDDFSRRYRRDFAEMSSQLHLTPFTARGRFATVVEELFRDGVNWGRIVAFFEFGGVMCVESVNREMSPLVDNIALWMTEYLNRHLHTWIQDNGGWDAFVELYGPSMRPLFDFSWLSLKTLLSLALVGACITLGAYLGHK
Sequence of Bfl-1 (Q16548 whole entry): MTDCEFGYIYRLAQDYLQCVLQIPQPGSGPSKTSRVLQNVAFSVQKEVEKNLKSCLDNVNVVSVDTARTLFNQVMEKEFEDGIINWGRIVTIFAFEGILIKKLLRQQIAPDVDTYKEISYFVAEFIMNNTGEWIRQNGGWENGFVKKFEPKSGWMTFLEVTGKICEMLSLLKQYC
Sequence of Mcl-1 (Q07820 whole entry): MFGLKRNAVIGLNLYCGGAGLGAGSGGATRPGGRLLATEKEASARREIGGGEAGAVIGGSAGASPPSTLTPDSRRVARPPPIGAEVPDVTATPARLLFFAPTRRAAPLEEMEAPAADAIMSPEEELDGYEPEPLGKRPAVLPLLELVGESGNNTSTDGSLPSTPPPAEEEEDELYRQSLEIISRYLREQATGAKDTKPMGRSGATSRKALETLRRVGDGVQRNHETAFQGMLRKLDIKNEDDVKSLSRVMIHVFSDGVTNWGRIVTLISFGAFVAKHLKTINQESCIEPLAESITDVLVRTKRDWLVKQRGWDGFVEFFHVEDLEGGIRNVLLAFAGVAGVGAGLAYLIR

Compound | 1D-1H NMR (Bcl-XL [3]) | IC50 (Bcl-XL [4]) [µM] | IC50 (Bcl-2) [µM] | IC50 (Bfl-1) [µM] | IC50 (Mcl-1) [µM] | Kd (Bcl-XL [5]) [µM] | Plasma Stability (T = 40 mins) [6] [%] | also measured
Cc1cc2c(C(C)C)c(O)c(O)cc2c(O)c1-c1c(C)cc2c(C(C)C)c(O)c(O)cc2c1O [Apogossypol] |  |  |  |  |  |  |  | EC50 (EC50 values of FIG. 3(B)): 2.8 µM; degraded after 60 days at room temperature [1]: ~80%; degraded after 1 hour incubation in rat plasma: 47%; degraded after 1 hour incubation in rat microsomal preparations [2]: 36%
CC1=C(C2=C(C)C(=O)c3c(cc(O)c(O)c3CC(C)C)C2=O)C(=O)c2cc(O)c(O)c(CC(C)C)c2C1=O [Compound 6b, 6,6′,7,7′-tetrahydroxy-5,5′-diisobutyl-3,3′-dimethyl-2,2′-binaphthyl-1,1′,4,4′-tetraone] | +++ | 0.55 ± 0.06 | 0.25 ± 0.02 | 1.41 ± 0.11 | 0.47 ± 0.03 | 1.5 ± 0.8 | 98 | Microsomal Stability (T = 40 mins) [7]: 69%
COC1=CC(c2cc3ccccc3[nH]2)=N/C1=C\c1[nH]c(C)cc1C [GX15-070] |  |  |  |  |  |  |  | IC50 (H460 cell line): 3.85 µM
CC1=C(C2=C(C)C(=O)c3c(cc(O)c(O)c3C(C)C)C2=O)C(=O)c2cc(O)c(O)c(C(C)C)c2C1=O [Compound 6a, 6,6′,7,7′-tetrahydroxy-5,5′-diisopropyl-3,3′-dimethyl-2,2′-binaphthyl-1,1′,4,4′-tetraone, reference compound] | +++ | 0.63 ± 0.02 | 0.37 ± 0.02 | 2.17 ± 0.35 | 0.54 ± 0.03 | 2.8 | 77 | LD50 primary CLL samples (primary CLL cells; comparison of 6c with 6a): > 30 µM; LD50 primary CLL samples (primary CLL cells; two primary CLL samples, one day Annexin-V apoptosis assay): > 30 µM; maximum tolerated dose (MTD) [8]: above 240 mg/kg; degraded after 1 hour incubation in rat plasma ([6]; 1 h, rat plasma (preparations)): 23%; average body weight losses during the treatment (PPC-1 xenograft tumors; 50 mg/kg i.p.): 9.3%; weight loss in first week (PPC-1 xenograft tumors; 50 mg/kg i.p. three times in first week): ~5%
